Measurements taken from PMC9697446 (International Journal of Molecular Sciences, 2022).
Where two headings read alike, the source gives them in different places.

Tests used:
EeAChE PAS = target: T1, EeAChE PAS (Electrophorus electricus, UniProt O42275); experiment: biochemical; type: binding; details: for inhibition at 3 µM: read-out: PI Displacement, 3 µM; for inhibition at 20 µM: read-out: PI Displacement, 20 µM
T1 construct: purchased Sigma-Aldrich type VI-S
Experimental: PIand donepezil were purchased from Sigma-Aldrich. […] As the source of the enzyme, electric eel (Elecrophorus electricus) AChE (EeAChE, type VI-S, lyophilized powder, Sigma-Aldrich, Saint Louis, MO, USA) was used. The applicability of this enzyme was shown earlier
To determine the percentage of displacement of PI from the EeAChE PAS, EeAChE (with a final concentration of 7 μM) was incubated with the test compound at a concentration of 3 and 20 μM in 1 mM Tris-HCl buffer pH 8.0, 25 °C for 15 min. Next, PIsolution (with a final concentration of 8 μM) was added, the samples were incubated for 15 min, and the fluorescence spectrum (530 nm (exc.) and 600 nm (emiss.)) was taken. Donepezil and decamethonium were used as reference compounds. The blank contained PI of the same concentration in 1 mM Tris-HCl buffer pH 8.0. The measurements were carried out in triplicate on a FLUOStar Optima microplate reader).
The percentage of displacement of PIfrom the peripheral anionic site of AChE was calculated using the following formula:% Displacement = 100 − (IFAChE+Propidium+inhibitor/IFAChE+Propidium) × 100,(1) where IFAChE+Propidium is the fluorescence intensity of the propidium associated with AChE in the absence of the test compound (taken as 100%) and IFAChE+Propidium+inhibitor is the fluorescence intensity of the propidium associated with AChE in the presence of the test compound.

[1] = system: Fe3+-induced LP in rat brain homogenate; experiment: Fe3+-induced lipid peroxidation in rat brain homogenate; type: biochemical; details: for IC50: LP induced by 0.5 mM Fe3+ in rat brain homogenate, mean ± SD, read-out: Inhibition of LP IC50; for Pro-oxidant activity in rat brain homogenate: 10 nM to 30 µM
Experimental: The influence of MB and its conjugates with indole derivatives on Fe^3+-induced lipid peroxidation (LP) in rat brain homogenate was studied over a broad concentration range (from 10 nM to 30 µM).
On the day of the experiment, adult Wistar male rats that fasted overnight were euthanized in a CO2 chamber, followed by decapitation. The procedure was in compliance with the Guidelines for Animal Experiments at the Institute of Physiologically Active Compounds of the Russian Academy of Sciences. The brains were rapidly removed and homogenized in 0.12 M HEPES/0.15M NaCl, pH 7.4 buffer (HBS) ([…]) and used immediately for the assay.
The protein concentrations in rat brain homogenate (RBH) were determined by the biuret assay using bovine serum albumin as the standard.
The effect of the compounds on LP of the RBH was studied at […] in 0.25 mL of RBH (2 mg of protein·mL^−1) in the presence of the compounds or the vehicle (DMSO). Lipid peroxidation was induced by Fe^3+ (0.5 mM Fe(NH4)(SO4)2) as an oxidant.
The reaction mixture was incubated for 30 min at 37 °C, then quenched by adding 0.4 mL of quench medium containing 250 mM HCl and 15% (w/v) trichloroacetic acid. The samples were then centrifuged for 10 min at 10,000× g, and 75 µL of the supernatant was transferred to a 96-well plate. Next, 75 µL of 0.8% (w/v) 2-thiobarbituric acid (TBA) was added. The plate was then sealed, heated at 95 °C for 15 min, cooled to 4 °C, and the absorbance at 530–620 nm was measured using a Wallac Victor 3 1420 Multilabel Counter (Perkin Elmer, Turku, Finland).
All the experiments were performed as four independent runs with different brain homogenate preparations and three repeated probes in each run. The average results for each run were normalized between the positive control with the vehicle and Fe^3+ and negative control with only the vehicle. They were presented as the IC50 ± SD values for the antioxidant activities of the compounds which were calculated using GraphPad Prism 7.00 software (San Diego, CA, USA).

equine serum BChE = target: T2, equine serum BChE (Equus caballus, UniProt P81908); experiment: biochemical; details: n = 3; for IC50: IC50 ± SEM
T2 construct: the equine serum BChE, and the porcine liver CES; purchased Sigma-Aldrich; host or cells: equine serum
T2 sequence (P81908 whole entry): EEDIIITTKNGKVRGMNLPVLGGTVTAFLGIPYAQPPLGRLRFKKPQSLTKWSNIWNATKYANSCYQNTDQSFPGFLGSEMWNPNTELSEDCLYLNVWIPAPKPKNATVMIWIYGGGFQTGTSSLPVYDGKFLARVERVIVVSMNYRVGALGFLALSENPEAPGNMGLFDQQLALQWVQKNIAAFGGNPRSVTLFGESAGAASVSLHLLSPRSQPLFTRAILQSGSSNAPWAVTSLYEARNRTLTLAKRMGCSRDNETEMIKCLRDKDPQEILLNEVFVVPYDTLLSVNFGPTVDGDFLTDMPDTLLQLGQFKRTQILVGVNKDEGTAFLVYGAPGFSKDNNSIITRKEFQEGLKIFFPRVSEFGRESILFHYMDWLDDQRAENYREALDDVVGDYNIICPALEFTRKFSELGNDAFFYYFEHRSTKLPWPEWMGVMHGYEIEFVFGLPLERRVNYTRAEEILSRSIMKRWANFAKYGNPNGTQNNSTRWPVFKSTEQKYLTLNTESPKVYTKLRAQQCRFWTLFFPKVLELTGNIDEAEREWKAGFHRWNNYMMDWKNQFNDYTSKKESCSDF
Experimental: (§1) The esterase profile was estimated using the human erythrocyteAChE, the equine serum BChE, and the porcine liver CES.
(§2) Human erythrocyte AChE, equine serum BChE, porcine liver CES, acetylthiocholine iodide (ATCh), butyrylthiocholine iodide (BTCh), 5,5′-dithio-bis-(2-nitrobenzoic acid) (DTNB), 4-nitrophenol acetate (4-NPA), and BNPP were purchased from Sigma-Aldrich (St. Louis, MO, USA).
(§3) AChE and BChE activities were measured via the Ellman method. The assay solution consisted of 0.1 M K/Na phosphate buffer pH 7.5, 25 °C with the addition of 0.33 mM DTNB, 0.02 unit/mL of AChE or BChE and 1 mM of substrate (ATCh or BTCh, respectively). The assays were carried out with a reagent blank containing all components (except AChE orBChE) in order to account for the non-enzymatic hydrolysis of the substrate. In addition, an enzyme blank was included that contained all components except substrate to account for non-substrate sulfhydryl groups.
(§4) The test compounds were dissolved in DMSO, and the incubation mixture contained 2% (v/v) of the solvent. Enzyme inhibition was first assessed at a single concentration of 20 µM for each compound after a 5 min incubation at 25 °C in three separate experiments. […] The test compounds were added to the assay solution and preincubated at 25 °C with the enzymes for 5 min, followed by the addition of substrate. A parallel control was made for the assay solution with no inhibitor. Measurements were performed with a FLUOStar Optima microplate reader (BMG Labtech, Ortenberg, Germany). Each experiment was performed in triplicate. The results were expressed as the mean ± SEM. The reaction rates in the presence and absence of the inhibitor were compared, and the percent of residual enzyme activity due to the presence of test compounds was calculated.

human erythrocyte AChE = target: T3, human erythrocyte AChE (Homo sapiens, UniProt P22303); experiment: biochemical; details: IC50 ± SEM, n = 3
T3 construct: The esterase profile was estimated using the human erythrocyteAChE; purchased Sigma-Aldrich; host or cells: human erythrocytes
T3 sequence (P22303 32-617 isoform P22303-2 limits assumed): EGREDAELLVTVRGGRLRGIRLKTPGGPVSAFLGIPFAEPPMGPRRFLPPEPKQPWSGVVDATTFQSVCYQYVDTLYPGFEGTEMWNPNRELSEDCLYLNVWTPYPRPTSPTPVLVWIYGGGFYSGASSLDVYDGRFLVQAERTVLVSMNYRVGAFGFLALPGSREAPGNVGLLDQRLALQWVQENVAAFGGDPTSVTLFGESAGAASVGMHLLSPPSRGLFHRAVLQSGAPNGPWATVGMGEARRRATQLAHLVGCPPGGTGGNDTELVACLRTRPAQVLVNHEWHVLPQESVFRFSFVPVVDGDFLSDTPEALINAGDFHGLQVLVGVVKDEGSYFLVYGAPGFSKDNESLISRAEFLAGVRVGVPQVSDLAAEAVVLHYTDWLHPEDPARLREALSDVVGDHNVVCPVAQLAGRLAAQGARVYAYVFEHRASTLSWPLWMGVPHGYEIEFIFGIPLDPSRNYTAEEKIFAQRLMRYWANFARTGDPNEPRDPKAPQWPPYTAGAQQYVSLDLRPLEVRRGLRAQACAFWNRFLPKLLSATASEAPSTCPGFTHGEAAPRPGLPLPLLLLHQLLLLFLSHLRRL
Experimental: as §1, §2, §3, §4

[2] = compound 3 µM, EeAChE 7 µM, PI 8 µM, means ± SEM (n = 3)
[3] = compound 20 µM, EeAChE 7 µM, PI 8 µM, means ± SEM (n = 3)

T1 sequence (O42275 24-633): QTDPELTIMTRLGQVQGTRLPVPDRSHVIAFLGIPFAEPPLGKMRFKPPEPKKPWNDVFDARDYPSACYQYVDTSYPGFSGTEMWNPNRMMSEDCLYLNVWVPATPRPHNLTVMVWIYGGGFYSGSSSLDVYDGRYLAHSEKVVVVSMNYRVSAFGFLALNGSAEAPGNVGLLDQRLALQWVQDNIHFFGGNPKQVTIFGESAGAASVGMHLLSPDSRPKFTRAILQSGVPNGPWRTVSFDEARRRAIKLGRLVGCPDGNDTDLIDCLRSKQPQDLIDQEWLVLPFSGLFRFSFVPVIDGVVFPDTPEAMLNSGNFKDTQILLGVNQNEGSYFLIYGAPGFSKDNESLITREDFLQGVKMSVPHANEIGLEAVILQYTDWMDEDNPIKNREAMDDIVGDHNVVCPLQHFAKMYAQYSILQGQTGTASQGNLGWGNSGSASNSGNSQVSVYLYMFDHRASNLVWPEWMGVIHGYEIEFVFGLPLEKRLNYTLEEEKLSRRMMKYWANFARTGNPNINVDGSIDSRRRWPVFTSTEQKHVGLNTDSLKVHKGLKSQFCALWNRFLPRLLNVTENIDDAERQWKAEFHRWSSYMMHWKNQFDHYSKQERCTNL

SMILES | inhibition at 3 µM (EeAChE PAS; [2]) [%] | inhibition at 20 µM (EeAChE PAS; [3]) [%] | IC50 [1] [µM] | IC50 (equine serum BChE) [µM] | IC50 (human erythrocyte AChE) [µM] | inhibition at 3 µM (EeAChE PAS) [%] | inhibition at 20 µM (EeAChE PAS) [%] | Pro-oxidant activity in rat brain homogenate [1] | PI Displacement, 3 µM (EeAChE PAS; [2]) [%] | PI Displacement, 20 µM (EeAChE PAS; [3]) [%] | inhibition at 20 µM (equine serum BChE; 20 µM, ± SEM) [%]
CN(C)c1ccc2c(c1)Sc1cc(N(C)C)ccc1N2C(=O)CCn1c2c(c3ccccc31)CCC2 [Compound 4a] | 12 ± 0.5 | 20.9 ± 0.8 | 1.24 ± 0.72 | 42.13 ± 0.41 | 11.1 ± 0.69 | – | – | – | – | – | –
CN(C)c1ccc2nc3ccc(=[N+](C)C)cc-3sc2c1 [MB, Methylene blue, reference compound] | – | – | 1.9 ± 0.5 | 11.1 ± 0.12 | – | 20.9 ± 1.9 | 40.8 ± 3.7 | no pro-oxidant activity | – | – | –
Cc1ccc2c(c1)c1c(n2CCC(=O)N2c3ccc(N(C)C)cc3Sc3cc(N(C)C)ccc32)CCCCC1 [Compound 4k] | 12.1 ± 0.8 | 15.8 ± 0.7 | 0.82 ± 0.68 | 22.2 ± 0.92 | 12.9 ± 0.53 | – | – | – | – | – | –
Cc1ccc2c(c1)c1c(n2CCC(=O)N2c3ccc(N(C)C)cc3Sc3cc(N(C)C)ccc32)CCCC1 [Compound 4c] | 14.9 ± 1.1 | 31.8 ± 0.9 | 0.78 ± 0.35 | 41.4 ± 1.71 | 4.39 ± 0.26 | – | – | – | – | – | –
CN(C)c1ccc2c(c1)Sc1cc(N(C)C)ccc1N2C(=O)CCn1c2c(c3ccccc31)CCCCCC2 [Compound 4m] | 17.3 ± 1.2 | 37.4 ± 0.8 | 1.52 ± 0.79 | 21.7 ± 0.51 | 2.98 ± 0.1 | – | – | – | – | – | –
CN(C)c1ccc2c(c1)Sc1cc(N(C)C)ccc1N2 [MBH2, reference compound] | – | – | 0.53 ± 0.23 | 10.1 ± 0.16 | 1.76 ± 0.09 | – | – | no pro-oxidant activity | 17.7 ± 1.8 | 36.9 ± 3.3 | –
COc1ccc2c(c1)c1c(n2CCC(=O)N2c3ccc(N(C)C)cc3Sc3cc(N(C)C)ccc32)CCCC1 [Compound 4d] | 13.4 ± 0.9 | 28 ± 1.5 | 1.12 ± 0.62 | 52.1 ± 2.7 | 10.5 ± 0.89 | – | – | – | – | – | –
CN(C)c1ccc2c(c1)Sc1cc(N(C)C)ccc1N2C(=O)CCn1c2c(c3cc(OC(F)(F)F)ccc31)CCCC2 [Compound 4h] | 19.1 ± 1.1 | 33.8 ± 0.4 | 0.46 ± 0.32 | 47.6 ± 4.59 | 6.89 ± 0.09 | – | – | – | – | – | –
CN(C)c1ccc2c(c1)Sc1cc(N(C)C)ccc1N2C(=O)CCn1c2c(c3ccccc31)CCCCC2 [Compound 4j] | 10.3 ± 0.9 | 23.8 ± 1.1 | 0.62 ± 0.37 | 9.98 ± 0.86 | 10.7 ± 0.67 | – | – | – | – | – | –
CC1CCc2c(c3cc(OC(F)(F)F)ccc3n2CCC(=O)N2c3ccc(N(C)C)cc3Sc3cc(N(C)C)ccc32)C1 (centres unmarked) [Compound 4i] | 20.4 ± 1.8 | 32.5 ± 0.5 | 0.58 ± 0.26 | 6.07 ± 0.58 | 1.94 ± 0.09 | – | – | – | – | – | –
Cc1ccc2c(c1)c1c(n2CCC(=O)N2c3ccc(N(C)C)cc3Sc3cc(N(C)C)ccc32)CCCCCC1 [Compound 4n] | 16.7 ± 1.2 | 28.3 ± 1.2 | 0.93 ± 0.68 | 15.6 ± 1.13 | 6.26 ± 0.01 | – | – | – | – | – | –
COc1ccc2c(c1)c1c(n2CCC(=O)N2c3ccc(N(C)C)cc3Sc3cc(N(C)C)ccc32)CCC(C)C1 (centres unmarked) [Compound 4e] | 14.8 ± 0.7 | 23 ± 1.3 | 0.5 ± 0.36 | – | 9.81 ± 0.18 | – | – | – | – | – | 22.9 ± 2
CN(C)c1ccc2c(c1)Sc1cc(N(C)C)ccc1N2C(=O)CCn1c2c(c3cc(F)ccc31)CCCC2 [Compound 4f] | 14.4 ± 0.8 | 31.9 ± 1.4 | 0.6 ± 0.32 | 18.4 ± 1.52 | 6.57 ± 0.57 | – | – | – | – | – | –
CN(C)c1ccc2c(c1)Sc1cc(N(C)C)ccc1N2C(=O)CCn1c2c(c3ccccc31)CCCC2 [Compound 4b] | 12.6 ± 0.7 | 27.9 ± 1.1 | 1.12 ± 0.63 | 48.7 ± 2.09 | 12.3 ± 1.51 | – | – | – | – | – | –
